In experiment [1] the target is T1, K2P5.1(TASK-2) (Mus musculus, UniProt F6V9U5).
T1 construct: expressed in transfected cells; host or cells: Xenopus laevis oocytes (mRNA injection, pGEMHE/pMO)
Briefly: TEVC of K2P5.1(TASK-2) in Xenopus oocytes. The experiment is classed as cell-based. The conditions noted are these: concentrations up to the solubility limit (∼80 μM). The method, then: BL-1249 activates K2P2.1(TREK-1)[18],[40] and K2P10.1(TREK-2),[7] but its effects on other K2P channels have not been characterized. […] In order to test if the original 10 μM assay had missed BL-1249 effects in other K2P channels, we tested concentrations of BL-1249 up to the solubility limit (∼80 μM) against the other K2P subfamily representatives. […]
Xenopus laevis oocytes were harvested in accordance with UCSF IACUC protocol AN129690 and digested in calcium-free ND-96 (96 mM NaCl, 2 mM KCl, 3.8 mM MgCl2) immediately following harvest, as previously described.[6],[10] […] Defolliculated stage V–VI oocytes were injected with 0.2–6.0 ng of mRNA in 50 nL, and currents were recorded 24–48 h after injection. mRNA was synthesized from plasmid DNA using mMessage mMachine Kit (T7 promoter, Ambion, Life Technologies) and purified using RNEasy Kit (Qiagen). […] Once stabilized basal currents were recorded, compounds were perfused at various concentrations in standard ND96 and currents were allowed to increase to stabilization before recording final current. Fold activation upon compound application is expressed as I/I0 (0 mV), derived from the current at 0 mV in the presence of compound divided by the basal current at 0 mV in standard ND96 without compound. Data were analyzed and plotted using Graphpad Prism Version 5 (GraphPad Software, San Diego California USA, www.graphpad.com). […]

The target of experiment [2] is T2, K2P2.1(TREK-1) (Mus musculus, UniProt P97438).
T2 sequence (P97438 1-411 isoform P97438-2): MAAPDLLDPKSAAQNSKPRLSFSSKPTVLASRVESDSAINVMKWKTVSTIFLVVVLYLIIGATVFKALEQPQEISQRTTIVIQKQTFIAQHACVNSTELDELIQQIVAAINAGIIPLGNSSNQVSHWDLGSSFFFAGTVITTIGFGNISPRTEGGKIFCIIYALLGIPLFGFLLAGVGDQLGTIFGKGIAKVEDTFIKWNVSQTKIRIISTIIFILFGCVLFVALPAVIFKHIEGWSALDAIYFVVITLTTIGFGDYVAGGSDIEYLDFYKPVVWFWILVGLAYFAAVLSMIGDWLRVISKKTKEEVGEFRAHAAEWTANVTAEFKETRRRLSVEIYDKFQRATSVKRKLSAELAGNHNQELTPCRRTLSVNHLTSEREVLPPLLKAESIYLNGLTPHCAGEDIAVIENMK
Briefly: Inside-out patch clamp of K2P2.1(TREK-1) in HEK293 cells. It counts as cell-based. Details: expressed in transfected cells. As to conditions: HEK293 inside-out patches, 150 mM K+[out]/150 mM Rb+[in], 1 μM. The text has this: Diverse types of physical and chemical stimuli activate K2P2.1(TREK-1) by stabilizing the C-type gate and switching the channel into a “leak” mode that is characterized by a loss of outward rectification of the potassium current.[6],[8] Accordingly, we used inside-out patch clamp experiments of K2P2.1(TREK-1) expressed in HEK293 cells to test whether BL-1249 acts on the C-type gate. […] Together with previous single point concentration studies showing the insensitivity of K2P2.1(TREK-1) W275S in mammalian cells,[40] our data provide definitive evidence that BL-1249 activates K2P2.1(TREK-1) by stimulating the C-type gate. Thus, this compound fits the mechanistic paradigm shared by varied types of activators including mechanical stretch, pH, lipids, and small molecules.[6],[8]
Mouse K2P2.1 was expressed from a previously described pIRES2-EGFP vector in HEK293T cells (ATCC CRL-1573). Cells at 70% confluence were transfected (in 35 mm diameter wells) using LipofectAMINE 2000 (Invitrogen) for 6 h and plated onto coverslips coated with Matrigel (BD Biosciences).
Voltage-dependent activation of K2P2.1 was recorded on excised patches in inside-out configuration (50 kHz sampling) in the absence and presence of 1 μM BL-1249. Pipette solution contained the following: 150 mM KCl, 3.6 mM CaCl2, 10 mM HEPES (pH 7.4 with KOH). […] Data were analyzed using Clampfit 9 and Origin 7.

Each structure is given as a SMILES string.

T1 sequence (F6V9U5 1-502): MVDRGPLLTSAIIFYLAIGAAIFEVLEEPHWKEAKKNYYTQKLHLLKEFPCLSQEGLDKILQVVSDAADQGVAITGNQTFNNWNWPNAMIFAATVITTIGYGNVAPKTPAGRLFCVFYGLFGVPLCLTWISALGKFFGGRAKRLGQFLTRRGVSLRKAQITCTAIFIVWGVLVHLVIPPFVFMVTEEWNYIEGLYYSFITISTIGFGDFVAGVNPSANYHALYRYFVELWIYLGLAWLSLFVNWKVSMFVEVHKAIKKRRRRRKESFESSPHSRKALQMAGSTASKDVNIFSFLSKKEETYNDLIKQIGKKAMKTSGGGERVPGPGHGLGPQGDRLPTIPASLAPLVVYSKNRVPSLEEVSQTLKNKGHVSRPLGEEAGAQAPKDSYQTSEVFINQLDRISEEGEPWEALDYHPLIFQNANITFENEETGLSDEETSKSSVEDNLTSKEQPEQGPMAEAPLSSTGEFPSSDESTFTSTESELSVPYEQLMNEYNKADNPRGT

As to `c1ccc(-c2nnn[nH]2)c(Nc2cccc3c2CCCC3)c1` [BL-1249, (5,6,7,8-tetrahydro-naphthalen-1-yl)-[2-(1H-tetrazol-5-yl)-phenyl]-amine], in experiment [1], the “activation of K2P5.1(TASK-2)” value was “failed to find evidence for activation”. In experiment [2], the “effect on outward rectification (C-type gate)” value is given as “clear loss of rectification”.

For the origin of these results see PMC6302903, “Protein and Chemical Determinants of BL-1249 Action and Selectivity for K2P Channels” (ACS Chemical Neuroscience, 2018).
